{
  "source": "patent US20250302972A1",
  "about": "“FORMULATION” (ENA Respiratory Pty Ltd, priority 2021, published 2025)",
  "key": {"[1]": {"system": "SARS-CoV-2", "experiment": "A204 efficacy against SARS-CoV-2 in the hamster model - treatment", "format": "in vivo", "settings": "10 ug/ml in 100 ul, 8 hours post infection; to 7 dpi"}, "[2]": {"system": "SARS-CoV-2", "experiment": "A204 efficacy against SARS-CoV-2 in the hamster model - prophylaxis", "format": "in vivo"}, "[3]": {"experiment": "Stability IV: formulation pH at each time point", "format": "physicochemical", "experimental": "Each compound was formulated in 0.9% w/w saline with addition of 0.1% w/w EDTA at about pH 5. The formulations were stored in the dark under accelerated conditions (40° C./75% RH) and reference formulations were stored at −80° C. At days 0, 9 and 28, samples were analysed by UHPLC and pH was measured.\nThe remaining ˜1 mL of solution in the clear glass HPLC vials was stored at 40° C./75% RH and was used to measure pH at each time point.\nThe formulation pH data recorded at each time point are compiled in Table 19. There was a general trend for the pH to increase with time but the effect was not pronounced."}, "[4]": {"experiment": "Solubility in deionised water", "format": "physicochemical", "settings": "DI water; read-out: concentration at which fully soluble in deionised (DI) water", "experimental": "All spray drying feed solutions were prepared in deionised (DI) water. […] All other excipient components (mannitol, trehalose and HPMC) were also shown readily soluble in the DI water."}, "[5]": {"molecular_target": "T1, human TLR2 (hTLR2) (Homo sapiens, UniProt O60603)", "T1 construct": "host or cells: HEK293 (HEK-BLUE-hTLR2)", "T1 sequence (O60603 21-784)": "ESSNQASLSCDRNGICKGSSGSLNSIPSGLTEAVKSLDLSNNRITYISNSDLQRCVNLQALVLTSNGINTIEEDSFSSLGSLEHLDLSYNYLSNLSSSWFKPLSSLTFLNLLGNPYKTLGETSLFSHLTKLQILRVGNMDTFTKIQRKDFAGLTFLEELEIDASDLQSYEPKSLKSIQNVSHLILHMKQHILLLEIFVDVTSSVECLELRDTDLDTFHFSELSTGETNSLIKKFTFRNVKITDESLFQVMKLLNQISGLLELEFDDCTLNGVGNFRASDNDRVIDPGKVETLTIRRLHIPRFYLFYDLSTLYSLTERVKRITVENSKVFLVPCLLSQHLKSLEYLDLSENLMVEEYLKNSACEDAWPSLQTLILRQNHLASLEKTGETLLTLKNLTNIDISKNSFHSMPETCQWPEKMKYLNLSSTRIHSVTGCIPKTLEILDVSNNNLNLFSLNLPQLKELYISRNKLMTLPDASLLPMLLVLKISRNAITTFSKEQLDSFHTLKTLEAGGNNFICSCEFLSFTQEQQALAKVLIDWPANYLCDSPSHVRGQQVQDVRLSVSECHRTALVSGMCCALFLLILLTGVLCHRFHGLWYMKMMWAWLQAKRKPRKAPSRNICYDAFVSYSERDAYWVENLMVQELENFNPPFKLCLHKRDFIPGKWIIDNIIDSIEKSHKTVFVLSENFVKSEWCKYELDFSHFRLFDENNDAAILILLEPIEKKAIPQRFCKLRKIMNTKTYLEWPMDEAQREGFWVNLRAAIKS", "T1 sequence (Q9Y2C9 32-796 partner)": "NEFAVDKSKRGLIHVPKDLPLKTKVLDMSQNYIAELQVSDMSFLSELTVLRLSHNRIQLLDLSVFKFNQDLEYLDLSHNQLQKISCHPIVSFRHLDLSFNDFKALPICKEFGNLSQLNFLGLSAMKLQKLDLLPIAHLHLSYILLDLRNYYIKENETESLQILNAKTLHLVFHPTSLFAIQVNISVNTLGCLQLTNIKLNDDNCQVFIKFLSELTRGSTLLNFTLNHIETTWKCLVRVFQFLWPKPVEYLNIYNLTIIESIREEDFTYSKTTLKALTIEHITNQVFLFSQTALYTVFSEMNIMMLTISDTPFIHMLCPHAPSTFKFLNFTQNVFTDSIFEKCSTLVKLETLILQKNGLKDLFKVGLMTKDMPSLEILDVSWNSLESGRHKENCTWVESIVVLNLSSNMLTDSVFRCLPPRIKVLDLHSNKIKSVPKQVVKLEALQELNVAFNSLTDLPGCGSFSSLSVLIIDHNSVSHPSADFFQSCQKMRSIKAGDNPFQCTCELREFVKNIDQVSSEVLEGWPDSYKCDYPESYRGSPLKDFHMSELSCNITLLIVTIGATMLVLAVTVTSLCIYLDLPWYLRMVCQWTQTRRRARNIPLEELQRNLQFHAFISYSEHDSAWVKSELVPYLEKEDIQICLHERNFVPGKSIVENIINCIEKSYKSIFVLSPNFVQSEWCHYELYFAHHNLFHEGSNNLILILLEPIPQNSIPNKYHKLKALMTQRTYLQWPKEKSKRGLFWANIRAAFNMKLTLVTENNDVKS", "experiment": "Activation of human TLR2 IV: HEK-BLUE-hTLR2 cells", "format": "cell-based", "settings": "FIG. 4", "experimental": "HEK-BLUE-hTLR2 cells are designed for studying the stimulation of human TLR2 (hTLR2) by monitoring the activation of NF-kB. HEK-BLUE-hTLR2 cells are obtained by co-transfection of the hTLR2 and SEAP (secreted embryonic alkaline phosphatase) reporter genes into HEK293 cells. Stimulation with a TLR2 ligand activates NF-kB which induces the production of SEAP.\nHEK-BLUE-hTLR2 cells were purchased from InvivoGen (San Diego, CA, USA). Cells were grown in DMEM supplemented with 10% FCS, 100 U/ml penicillin, 100 ug/ml streptomycin and 2 mM L-glutamine, 100 μg/mL Normocin in the presence of selection antibiotic purchased from InvivoGen and passaged when 70% confluence was reached per manufacturer's recommendation. […]"}, "[6]": {"molecular_target": "T2, human TLR2 (Homo sapiens, UniProt O60603)", "T2 construct": "expressed in transfected cells; host or cells: HEK-Blue hTLR2", "T2 sequence (O60603 21-784)": "as the sequence (O60603 21-784) above", "T2 sequence (Q9Y2C9 32-796 partner)": "as the sequence (Q9Y2C9 32-796 partner) above", "experiment": "HEK-Blue hTLR2 Dose Response (NF-κB SEAP reporter)", "format": "cell-based", "experimental": "(§1) Toll-Like Receptor (TLR) stimulation is tested by assessing NF-κB activation in the TLR expressing cell lines. HEK-Blue h/mTLR2 cells have been stably transfected with human or mouse TLR2 and CD14. The activity of the test articles are tested on human and mouse TLR2, as potential agonists. The test articles are evaluated at seven concentrations and compared to control ligands (see list below). These steps are performed in triplicate.\n[…] Starting from the 5 μg/mL working stock, a series of six 1:4 serial dilutions were made by mixing 100 μL of the previous highest dilution with 300 μL sterile PBS.\n(§2) The secreted embryonic alkaline phosphatase (SEAP) reporter is under the control of a promoter inducible by the transcription factor NF-κB. This reporter gene allows the monitoring of signaling through the TLR, based on the activation of NF-κB. In a 96-well plate (200 μL total volume) containing the appropriate cells (50,000-75,000 cells/well), 20 μL of the test article or the positive control ligand (HKLC) is added to the wells. The media added to the wells is designed for the detection of NF-κB induced SEAP expression. After a 16-24-hour incubation the optical density (OD) is read at 650 nm on a Molecular Devices SpectraMax 340PC absorbance detector."}, "[7]": {"molecular_target": "T3, mouse TLR2 (Mus musculus, UniProt Q9QUN7)", "T3 construct": "expressed in transfected cells; host or cells: HEK-Blue mTLR2", "T3 sequence (Q9QUN7 25-784)": "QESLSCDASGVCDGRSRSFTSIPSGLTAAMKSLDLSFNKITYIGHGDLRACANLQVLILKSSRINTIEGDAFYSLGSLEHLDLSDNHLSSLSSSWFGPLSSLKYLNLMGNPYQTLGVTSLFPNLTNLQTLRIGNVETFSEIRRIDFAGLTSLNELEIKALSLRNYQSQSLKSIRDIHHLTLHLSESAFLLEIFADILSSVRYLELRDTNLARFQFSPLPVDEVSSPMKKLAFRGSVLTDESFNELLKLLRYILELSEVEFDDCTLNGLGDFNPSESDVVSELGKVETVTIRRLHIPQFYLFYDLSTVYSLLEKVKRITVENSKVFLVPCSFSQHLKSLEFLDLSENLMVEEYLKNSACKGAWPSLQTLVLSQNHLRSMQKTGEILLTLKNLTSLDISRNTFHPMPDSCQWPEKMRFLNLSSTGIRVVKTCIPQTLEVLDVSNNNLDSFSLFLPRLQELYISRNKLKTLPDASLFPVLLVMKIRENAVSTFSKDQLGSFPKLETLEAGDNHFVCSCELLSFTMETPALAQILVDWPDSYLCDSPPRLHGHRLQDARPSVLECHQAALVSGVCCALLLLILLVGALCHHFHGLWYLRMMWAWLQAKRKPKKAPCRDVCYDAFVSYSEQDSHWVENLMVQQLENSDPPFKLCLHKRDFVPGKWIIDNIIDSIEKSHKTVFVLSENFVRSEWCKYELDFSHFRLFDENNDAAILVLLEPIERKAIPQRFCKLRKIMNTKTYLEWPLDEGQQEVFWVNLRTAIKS", "T3 sequence (Q9Y2C9 32-796 partner)": "as the sequence (Q9Y2C9 32-796 partner) above", "experiment": "HEK-Blue mTLR2 Dose Response (NF-κB SEAP reporter)", "format": "cell-based", "experimental": "as §1\nA 5 μg/mL working stock was then prepared for each compound from the 20 μg/mL dilution in sterile PBS. Starting from the 5 μg/mL working stock, a series of six 1:4 serial dilutions were made by mixing 100 μL of the previous highest dilution with 300 μL sterile PBS.\nas §2"}, "[8]": {"molecular_target": "T1, human TLR2 (hTLR2)", "experiment": "Activation of human TLR2 II: HEK-BLUE-hTLR2 SEAP reporter assay", "format": "cell-based"}, "[9]": {"system": "HEK-Blue Null1 cells", "experiment": "HEK-Blue Null1 control cell line (control for human TLR2)", "format": "cell-based", "settings": "TLR2-free control cells", "experimental": "as §2"}, "[10]": {"system": "HEK-Blue Null2 cells", "experiment": "HEK-Blue Null2 control cell line (control for mouse TLR2)", "format": "cell-based", "settings": "TLR2-free control cells", "experimental": "as §2"}},
  "note": "Several values for one entry are separate records, joined by “and”; a condition that tells them apart may be missing. Identical values can stand only once.",
  "data": [
    {"smiles": "CCCCCCCCCCCCCCCC(=O)OCC[C@H](CSC[C@H](N)C(=O)N[C@@H](CO)C(=O)NCCOCCOCCOCCOCCOCCOCCOCCOCCOCCOCCOCCOCCOCCOCCOCCOCCOCCOCCOCCOCCOCCOCCOCCOCCOCCOCCOCCOCCC(=O)NCC(N)=O)OC(=O)CCCCCCCCCCCCCCC", "note": "[A204]", "values": [
      {"measurement": "recovery of weight loss", "setting": "[1]", "result": "recovered weight loss more rapidly than PBS treated"},
      {"measurement": "weight change during infection", "setting": "[2]; 50 ug/ml in 100 ul intranasal 24 hours prior to infection", "result": "lost no weight"},
      {"measurement": "lung viral loads versus mock treated animals", "setting": "[2]; 7 dpi", "result": "slightly lower"},
      {"measurement": "viral RNA level versus mock treated animals (fold lower)", "setting": "[2]; throat swabs, 2 days post infection, RT-qPCR", "result": 32, "unit": "fold"},
      {"measurement": "formulation pH", "setting": "[3]; 0-days", "result": 5.0},
      {"measurement": "formulation pH", "setting": "[3]; 9-days, 40° C./75% RH", "result": 5.2},
      {"measurement": "formulation pH", "setting": "[3]; 28-days, 40° C./75% RH", "result": 5.2},
      {"measurement": "solubility", "setting": "[4]", "result": "≤ 2000", "unit": "µg/mL"},
      {"measurement": "activity at TLR2", "setting": "[5]", "result": "significant activity at TLR2"}
    ]},
    {"smiles": "CCCCCCCCCCCCCCC(C)C(=O)OCC[C@H](CSC[C@H](N)C(=O)N[C@@H](CO)C(=O)NCCOCCOCCOCCOCCOCCOCCOCCOCCOCCOCCOCCOCCOCCOCCOCCOCCOCCOCCOCCOCCOCCOCCOCCOCCOCCOCCOCCOCCC(=O)NCC(N)=O)OC(=O)C(C)CCCCCCCCCCCCCC", "note": "(some centres unmarked) [B12]", "values": [
      {"measurement": "optical density (650 nm), Average", "setting": "[6]; 0.12 pg/mL", "result": 1.362},
      {"measurement": "optical density (650 nm), screenings 1-3", "setting": "[6]; 0.12 pg/mL", "result": "1.443 and 1.313 and 1.329"},
      {"measurement": "optical density (650 nm), Average", "setting": "[6]; 0.49 pg/mL", "result": 1.860},
      {"measurement": "optical density (650 nm), screenings 1-3", "setting": "[6]; 0.49 pg/mL", "result": "1.892 and 1.785 and 1.902"},
      {"measurement": "optical density (650 nm), Average", "setting": "[6]; 1.95 pg/mL", "result": 2.045},
      {"measurement": "optical density (650 nm), screenings 1-3", "setting": "[6]; 1.95 pg/mL", "result": "2.149 and 2.008 and 1.979"},
      {"measurement": "optical density (650 nm), Average", "setting": "[6]; 7.81 pg/mL", "result": 2.411},
      {"measurement": "optical density (650 nm), screenings 1-3", "setting": "[6]; 7.81 pg/mL", "result": "2.420 and 2.446 and 2.366"},
      {"measurement": "optical density (650 nm), Average", "setting": "[6]; 31.25 pg/mL", "result": 2.457},
      {"measurement": "optical density (650 nm), screenings 1-3", "setting": "[6]; 31.25 pg/mL", "result": "2.492 and 2.500 and 2.380"},
      {"measurement": "optical density (650 nm), Average", "setting": "[6]; 125 pg/mL", "result": 2.568},
      {"measurement": "optical density (650 nm), screenings 1-3", "setting": "[6]; 125 pg/mL", "result": "2.608 and 2.541 and 2.555"},
      {"measurement": "optical density (650 nm), Average", "setting": "[6]; 500 pg/mL", "result": 2.471},
      {"measurement": "optical density (650 nm), screenings 1-3", "setting": "[6]; 500 pg/mL", "result": "2.584 and 2.404 and 2.426"},
      {"measurement": "stimulatory (agonist) activity for hTLR2", "setting": "[6]; HEK-Blue hTLR2", "result": "possesses stimulatory activity"},
      {"measurement": "stimulatory (agonist) activity for mTLR2", "setting": "[7]", "result": "possesses stimulatory activity"},
      {"measurement": "optical density (650 nm), screenings 1-3", "setting": "[8]; 0.1 ng/mL", "result": "0.239 and 0.202 and 0.208"},
      {"measurement": "optical density (650 nm), screenings 1-3", "setting": "[8]; 0.31 ng/mL", "result": "0.116 and 0.132 and 0.137"},
      {"measurement": "optical density (650 nm), screenings 1-3", "setting": "[8]; 0.5 ng/mL", "result": "0.585 and 0.558 and 0.559"},
      {"measurement": "optical density (650 nm), screenings 1-3", "setting": "[8]; 2.0 ng/mL", "result": "1.429 and 1.308 and 1.638"},
      {"measurement": "optical density (650 nm), screenings 1-3", "setting": "[8]; 7.8 ng/mL", "result": "2.187 and 2.257 and 2.302"},
      {"measurement": "optical density (650 nm), screenings 1-3", "setting": "[8]; 31.3 ng/mL", "result": "2.422 and 2.423 and 2.449"},
      {"measurement": "optical density (650 nm), screenings 1-3", "setting": "[8]; 125 ng/mL", "result": "2.409 and 2.564 and 2.615"},
      {"measurement": "stimulatory response in HEK-Blue Null1 (human) cells", "setting": "[9]", "result": "not observed"},
      {"measurement": "formulation pH", "setting": "[3]; 0-days", "result": 5.6},
      {"measurement": "formulation pH", "setting": "[3]; 9-days, 40° C./75% RH", "result": 5.7},
      {"measurement": "formulation pH", "setting": "[3]; 28-days, 40° C./75% RH", "result": 5.7},
      {"measurement": "stimulatory response in HEK-Blue Null2 (mouse) cells", "setting": "[10]", "result": "not observed"},
      {"measurement": "activity at TLR2", "setting": "[5]", "result": "significant activity at TLR2"}
    ]}
  ]
}
